Measurements: patent US20200289554A1, “BIOORTHOGONAL COMPOUNDS COMPRISING A PROPARGYL GROUP FOR TREATING CANCER” (THE UNIVERSITY COURT OF THE UNIVERSITY OF EDINBURGH, priority 2016, published 2020)
pEC50: −log10 of the molar value. Like-named read-outs stand apart in the source and are kept apart here.

Tests used:
[1] = system: U87G cells; test: Prodrug safety dose-response cell viability (PrestoBlue), U87G; format: cell-based, human; settings: U87G cells, 5 days, no catalyst, read-out: EC50 (cell viability)
Protocol: (§1) These cell lines were selected as these are primary malignancies against which the parental drugs are currently prescribed.
(§2) The toxicities of each active agent and prodrugs were compared by performing dose-response studies. […] Cell viability was analysed by fluoresce intensity (λex=540 nm; λem=590 nm) after 60-90 min incubation with PrestoBlue™ Reagent (Life Technologies).

[2] = system: A549 cells; test: Prodrug safety dose-response cell viability (PrestoBlue), A549; format: cell-based; settings: Homo sapiens, 120 h, 5 days, no catalyst
Protocol: as §1, §2

[3] = system: T98 cells; test: Prodrug safety dose-response cell viability (PrestoBlue), T98; format: cell-based; settings: Homo sapiens, 120 h, 5 days, no catalyst
Protocol: as §1, §2

[4] = system: A549 cells; test: BOOM conversion: prodrug + metal resins in cell culture, cell viability, A549; format: cell-based, human; settings: Pd0-resin 1 mg/mL, 100 μM Vorinostat prodrugs, 1 μM Doxorubicin prodrugs, 0.3 μM Panobinostat prodrug
Protocol: Cell viabilities for each prodrug provided as a combination with palladium is presented in FIG. 3 and gold is presented in FIG. 33 in the right of each set of two bars. […] Cells were incubated in tissue culture media containing 0.1% (v/v) DMSO and: Pd^0, Au, or Pd/Au-resins (1 mg/mL, negative control); 100 μM of each prodrug (negative control); and Pd^0, Au, or Pd/Au-resins (1 mg/mL)+100 μM of each prodrug (BOOM reaction assay). Cells incubated in 0.1% (v/v) DMSO in media were used as untreated cell control.
(§3) Following 5 days treatment, cells were incubated with PrestoBlue™ Cell Viability Reagent (Life Technologies) for 60-90 min. Fluorescence intensity values were related to the untreated cells (100% cell viability). […] Cells incubated in 0.1% (v/v) DMSO in media were used as untreated cell control.
(§4) Cell viabilities for each prodrug provided as a combination with palladium is presented in FIG. 7 in the right of each set of two bars. Data for prodrug in the absence of palladium catalyst is also provided (the left bar of each set of two bars) for comparison along with negative controls (from left to right: DMSO, Pd^0 and Doxorubicin). Cells were incubated in tissue culture media containing 0.1% (v/v) DMSO and: Pd^0-resins (1 mg/mL, negative control); 1 μM of each prodrug (negative control); and Pd^0-resins (1 mg/mL)+1 μM of each prodrug (BOOM reaction assay). Cells incubated in 0.1% (v/v) DMSO in media were used as untreated cell control.
(§5) Following 5 days treatment, cells were incubated with PrestoBlue™ Cell Viability Reagent (Life Technologies) for 90 min. Fluorescence intensity values were related to the untreated cells (100% cell viability). Data are provided in FIG. 8 for cells incubated in tissue culture media containing 0.1% (v/v) DMSO and: Pd^0-resins (1 mg/mL, negative control); 0.3-3 μM of Doxorubicin prodrug for A549 and DU145 cell lines, 0.1-1 μM of Doxorubicin prodrug for T98 cell line (negative control); 0.3-3 μM of Doxorubicin for A549 and DU145 cell lines, 0.1-1 μM of Doxorubicin for T98 cell line (positive control); and Pd^0-resin (1 mg/mL)+Doxorubicin prodrug (BOOM reaction assay). Cells incubated in 0.1% (v/v) DMSO in media were used as untreated cell control.
as §4, with “21” for “7”, “panobinostat).” for “Doxorubicin).”
(§6) The toxigenic effect as a result of in situ generation of parental drug in cell culture was determined by incubating all cells in tissue culture media containing 0.1% (v/v) DMSO and a) Pd^0, Au, or Pd/Au-resin (1 mg/mL for all cells tested, negative control); b) prodrug (negative control); or c) Pd^0, Au, or Pd/Au-resin (1 mg/mL for all cells)+prodrug (reaction assay). Cells incubated in 0.1% (v/v) DMSO in media was used as an untreated cell reference standard (100% viability). A PrestoBlue® cell viability assay as described above was carried out and fluorescent intensities compared to the untreated cell control.
(§7) A dose response study was performed for each cell line keeping the quantity of Pd^0 resin constant (0.8 mg/mL for U87G and 1 mg/mL for the rest of cell lines). All cells were plated in Dulbecco's Modified Eagle Media (DMEM) supplemented with serum (10% FBS) and L-glutamine (2 mM). […]

[5] = system: T98 cells; test: BOOM conversion: prodrug + Pd0-resins in cell culture, cell viability, T98; format: cell-based, human; settings: Pd0-resin 1 mg/mL, 1 μM Doxorubicin prodrugs
Protocol: as §3, §4, §5, §6, §7

[6] = system: DU145 cells; test: BOOM conversion: prodrug + Pd0-resins in cell culture, cell viability, DU145; format: cell-based, human; settings: Pd0-resin 1 mg/mL, 1 μM Doxorubicin prodrugs
Protocol: as §4
as §5, with “Cells incubated in 0.1% (v/v) DMSO in media were used as untreated cell control.” left out
(§8) The toxigenic effect as a result of in situ generation of parental drug in cell culture was determined by incubating all cells in tissue culture media containing 0.1% (v/v) DMSO and a) Pd^0, Au, or Pd/Au-resin (1 mg/mL for all cells tested, negative control); b) prodrug (negative control); or c) Pd^0, Au, or Pd/Au-resin (1 mg/mL for all cells)+prodrug (reaction assay). […]
(§9) A dose response study was performed for each cell line keeping the quantity of Pd^0 resin constant (0.8 mg/mL for U87G and 1 mg/mL for the rest of cell lines). […] Fluorescence intensity values (detected using a PerkinElmer EnVision 2101 multilabel reader with excitation filter at 540 nm and emissions filter at 590 nm) were determined relative to the untreated cell control.

[7] = system: MiaPaCa2 cells; test: BOOM conversion: prodrug + Pd0-resins in cell culture, cell viability, MiaPaCa2; format: cell-based, human; settings: Pd0-resin 1 mg/mL, 0.03 μM Gemcitabine prodrugs
Protocol: as §4, with “FIG. 10” for “FIG. 7”, “and Gemcitabine).” for “and Doxorubicin).”, “control); 0.03” for “control); 1”, “(1 mg/mL)+0.03” for “(1 mg/mL)+1”
Following 5 days treatment, cells were incubated with PrestoBlue™ Cell Viability Reagent (Life Technologies) for 90 min. Fluorescence intensity values were related to the untreated cells (100% cell viability). Data are provided in FIG. 11 for cells incubated in tissue culture media containing 0.1% (v/v) DMSO and: Pd^0-resins (1 mg/mL, negative control); 0.003-0.3 μM of pPOBC-Gem (negative control); 0.003-0.3 μM of Gemcitabine (positive control); and Pd^0-resin (1 mg/mL)+pPOBC-Gem (BOOM reaction assay). Cells incubated in 0.1% (v/v) DMSO in media were used as untreated cell control.
as §8, with “assay). Cells incubated in 0.1% (v/v) DMSO in media was used as an untreated cell reference standard (100% viability).” for “assay).”
as §9

[8] = system: MiaPaCa2 cells; test: Prodrug safety dose-response cell viability (PrestoBlue), MiaPaCa2; format: cell-based, human; settings: Homo sapiens, MIA PaCa-2, 120 h, 5 days, no catalyst
Protocol: as §1, §2

Q: How did the pEC50 ([1]; Homo sapiens, 120 h) turn out when O=C(CCCCCCC(=O)Nc1ccccc1)NOCc1ccccc1 [Benzyl-Vor, Benzyl-Vorinostat] was run?
A: Its pEC50 is less than 3.30.

Q: And the pEC50 [2]?
A: The pEC50 was less than 3.30.

Q: What about the pEC50 [3] of the same compound?
A: The pEC50 was less than 3.30.

Q: What about the “toxigenic effect of prodrug + Pd0 resins” value [4] of the same compound?
A: The value was “only low levels of toxicity”.

Q: COc1cccc2c1C(=O)c1c(O)c3c(c(O)c1C2=O)C[C@@](O)(C(=O)CO)C[C@@H]3OC1C[C@H](NC(=O)OCc2ccccc2)[C@H](O)[C@H](C)O1 (stereo partly shown) [Cbz-Dox, Carboxybenzyl Doxorubicin] was tested. Which “toxigenic effect of prodrug + Pd0 resins” value [5] did it give?
A: The value was “only low levels of toxicity”.

Q: What about the “toxigenic effect of prodrug + Pd0 resins” value [6] of the same compound?
A: Its value is “only low levels of toxicity”.

Q: And the “toxigenic effect of prodrug + Pd0 resins” value [4]?
A: The value was “only low levels of toxicity”.

Q: O=C(Nc1ccn(C2OC(CO)C(O)C2(F)F)c(=O)n1)OCc1ccccc1 (stereo not shown) [Cbz-Gem, reference compound] was tested. Which “toxigenic effect of prodrug + Pd0 resins” value [7] did it give?
A: The value was “only low levels of toxicity”.

Q: COc1cc([C@@H]2c3cc4c(cc3[C@@H](O[C@@H]3O[C@@H]5CO[C@@H](C)O[C@H]5[C@H](O)[C@H]3O)[C@H]3COC(=O)[C@H]23)OCO4)cc(OC)c1O [Etoposide, reference compound] was tested. Which pEC50 ([1]; Homo sapiens, 120 h) did it give?
A: The pEC50 was 5.30.

Q: Nc1ccn([C@@H]2O[C@H](CO)[C@@H](O)C2(F)F)c(=O)n1 [Gemcitabine, reference compound] was tested. Which pEC50 [8] did it give?
A: The pEC50 was 7.89.

Q: Which results are given for C#CCOc1ccc(CONC(=O)/C=C/c2ccc(CNCCc3c(C)[nH]c4ccccc34)cc2)cc1 [POB-Panob, Propargyloxybenzyl-Panobinostat]?
A: pEC50 [2]: 6.12; toxigenic effect of prodrug + Pd0 resins [4]: strong toxigenic effect

Q: With Cc1[nH]c2ccccc2c1CCNCc1ccc(/C=C/C(=O)NO)cc1 [Panobinostat, reference compound] as the compound, how does the pEC50 [2] read?
A: Its pEC50 is 7.80.

Q: CCc1c2c(nc3ccc(O)cc13)-c1cc3c(c(=O)n1C2)COC(=O)[C@]3(O)CC [SN-38, 10-Hydroxy-7-ethylcamptothecin, reference compound] was tested. Which pEC50 [1] did it give?
A: Its pEC50 is 7.61.

Q: O=C(CCCCCCC(=O)Nc1ccccc1)NO [Vorinostat, reference compound] was tested. Which pEC50 [2] did it give?
A: The pEC50 was 5.31.

Q: What about the pEC50 [3] of the same compound?
A: Its pEC50 is 4.91.

Q: C#CCOc1ccccc1COC(=O)N[C@H]1CC(O[C@H]2C[C@](O)(C(=O)CO)Cc3c(O)c4c(c(O)c32)C(=O)c2c(OC)cccc2C4=O)O[C@@H](C)[C@H]1O (stereo partly shown) [oPOBC-Dox, 2-proparglyoxybenzylcarbamoyl Doxorubicin] was tested. Which “toxigenic effect of prodrug + Pd0 resins” value [5] did it give?
A: The value was “strong toxigenic effect”.

Q: What about the “toxigenic effect of prodrug + Pd0 resins” value [6] of the same compound?
A: The value was “strong toxigenic effect”.

Q: And the “toxigenic effect of prodrug + Pd0 resins” value [4]?
A: The value was “strong toxigenic effect”.

Q: Which “toxigenic effect of prodrug + Pd0 resins” value [5] does the source give for C#CCOc1ccc(COC(=O)N[C@H]2CC(O[C@H]3C[C@](O)(C(=O)CO)Cc4c(O)c5c(c(O)c43)C(=O)c3c(OC)cccc3C5=O)O[C@@H](C)[C@H]2O)cc1 (stereo partly shown) [pPOBC-Dox, 4-proparglyoxybenzylcarbamoyl Doxorubicin] here?
A: Its value is “strong toxigenic effect”.

Q: What about the “toxigenic effect of prodrug + Pd0 resins” value [6] of the same compound?
A: The value was “strong toxigenic effect”.

Q: And the “toxigenic effect of prodrug + Pd0 resins” value [4]?
A: The value was “strong toxigenic effect”.
